Columns and labels:
[1] = test system: HT/92/599 clinical subtype B HIV-1; experiment: HIV-1 reverse transcriptase activity following infection in fresh human PBMCs; type: cell-based; conditions: seven days; for EC50: read-out: PBMC/HIV-1HT/92/599 EC50; for EC90: read-out: PBMC/HIV-1HT/92/599 EC90
Protocol: Fresh human peripheral blood mononuclear cells (PBMCs) obtained from a commercial source were purified following centrifugation using a Ficoll-Hypaque density gradient. Viable cells were induced to proliferate in the presence of PHA-P and recombinant human IL-2 for 72 hours. PBMCs pooled from three donors were cultured with test compounds in the presence of the HT/92/599 clinical subtype B HIV-1 for seven days, followed by measurement of reverse transcriptase activity in cell supernatants using a radioactive incorporation polymerization assay. […] Incorporation of TTP into DNA was monitored by spotting the reaction mixture onto a DEAE filter mat, followed by washes with 5% phosphate buffer, distilled water, and 70% ethanol, and subsequent drying of the mat. Radioactivity was measured using a Wallac 1450 Microbeta Trilux liquid scintillation counter using Opti-Fluor O. Test compound-associated toxicity was measured in PBMCs cultured for seven days in the absence of virus using XTT reagent. EC50 and EC90 values were calculated as the protease inhibitor concentration leading to 50% and 90% reduction in […], respectively, compared to virus-infected cells without protease inhibitor. TC50 values were calculated as the protease inhibitor concentration leading to 50% cell death in the absence of viral infection. A value for Therapeutic Index (TI) was calculated as TC50/EC50.

[2] = test system: CEM-SS cells; type: cell-based
Protocol: (§1) To evaluate whether the protease inhibitors described herein retain the ability to protect against HIV-1 infection, CEM-SS cells infected with the RF strain of HIV-1 were treated with test compounds for six days, and then cell viability was monitored using the tetrazolium dye XTT. Infection studies were performed and EC50 values were calculated as the protease inhibitor concentration leading to 50% reduction in cell death compared to virus-infected cells without protease inhibitor. TC50 values were calculated as the protease inhibitor concentration leading to 50% cell death in the absence of viral infection. A value for Therapeutic Index (TI) was calculated as TC50/EC50.

[3] = test system: human peripheral blood mononuclear cells (PBMCs); type: cell-based
Protocol: Fresh human peripheral blood mononuclear cells (PBMCs) obtained from a commercial source were purified following centrifugation using a Ficoll-Hypaque density gradient. Viable cells were induced to proliferate in the presence of PHA-P and recombinant human IL-2 for 72 hours. PBMCs pooled from three donors were cultured with test compounds in the presence of the HT/92/599 clinical subtype B HIV-1 for seven days, followed by measurement of reverse transcriptase activity in cell supernatants using a radioactive incorporation polymerization assay. Cell supernatant containing HIV-1 viral was incubated for 90 minutes at 37° C. with a reaction mixture containing EGTA, Triton X-100, Tris (pH 7.4), DTT, MgCl2, poly rA, oligo dT, and tritiated thymidine triphosphate (TTP). Incorporation of TTP into DNA was monitored by spotting the reaction mixture onto a DEAE filter mat, followed by washes with 5% phosphate buffer, distilled water, and 70% ethanol, and subsequent drying of the mat. Radioactivity was measured using a Wallac 1450 Microbeta Trilux liquid scintillation counter using Opti-Fluor O. Test compound-associated toxicity was measured in PBMCs cultured for seven days in the absence of virus using XTT reagent. EC50 and EC90 values were calculated as the protease inhibitor concentration leading to 50% and 90% reduction in […], respectively, compared to virus-infected cells without protease inhibitor. TC50 values were calculated as the protease inhibitor concentration leading to 50% cell death in the absence of viral infection. A value for Therapeutic Index (TI) was calculated as TC50/EC50.

[4] = test system: HIV-1RF; experiment: Cytoprotection in CEM-SS cells infected with HIV-1RF (XTT); type: cell-based; conditions: CEM-SS cells infected with RF strain of HIV-1, six days
Protocol: as §1

[5] = Pharmacokinetics of released PEGylated protease inhibitor following P.O. administration of prodrugs in rats; type: in vivo, male Sprague-Dawley rats; design: AUCall Mean: concentration or dose not given beside the values; conditions: rats (n = 4-5)
In short: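 Prodrugs given orally to male Sprague-Dawley rats, with serial blood via jugular catheter into K2EDTA. Plasma levels of test article or released PEGylated inhibitor measured by LC-MS/MS. PK parameters from noncompartmental analysis.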

[6] = Pharmacokinetics of PEGylated protease inhibitor prodrugs in rats; type: in vivo, male Sprague-Dawley rats; design: AUCall / AUC: concentration or dose not given beside the values; conditions: prodrug in plasma; for AUCall / Cmax: mean ± SD
In short: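 Male Sprague-Dawley rats dosed; serial blood drawn via jugular vein catheters into K2EDTA and processed to plasma. Test article or released PEGylated molecule quantified by LC-MS/MS; Cmax, AUCall, T½ and MRTlast estimated noncompartmentally.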

[7] = mPEG6-atazanavir in plasma after PO administration of mPEG6-ATV or of the listed prodrug
[8] = mPEG5-atazanavir in plasma after PO administration of mPEG5-ATV or of the listed prodrug
[9] = mPEG3-atazanavir in plasma after PO administration of mPEG3-ATV or of the listed prodrug

| EC50 [1] [µM] | EC90 [1] [µM] | EC50 [4] [µM] | MRTlast [6] [h] | AUCall [6] [ng·h/mL] | Cmax [6] [ng/mL] | Compound | CC50 [2] [µM] | CC50 [3] [µM] | further results |
| --- | --- | --- | --- | --- | --- | --- | --- | --- | --- |
| 12.3 | 26.8 | > 200 | – | – | – | CCCCCCCCCCCCCCCCOCC(COP(=O)(O)OC(CN(Cc1ccc(-c2ccccn2)cc1)NC(=O)C(NC(=O)OC)C(C)(C)C)C(Cc1ccccc1)NC(=O)C(NC(=O)OCCOCCOCCOCCOCCOC)C(C)(C)C)OC (stereo not drawn) [mPEG5-Atazanavir-monophospholipid] | 12 | 17.1 | CEM-SS/HIV-1RF EC50 [4]: no EC50 value could be determined |
| 12.4 | 26.3 | 14.2 | – | – | – | CCCCCCCCCCCCCCCCOCC(COP(=O)(O)OC(CN(Cc1ccc(-c2ccccn2)cc1)NC(=O)C(NC(=O)OC)C(C)(C)C)C(Cc1ccccc1)NC(=O)C(NC(=O)OCCOCCOCCOCCOCCOCCOC)C(C)(C)C)OC (stereo not drawn) [mPEG6-Atazanavir-monophospholipid, mPEG6-atazanavir monophospholipid] | 12.6 | 37.6 | AUCall Mean [5, 7]: 0.108 ng·h/mL; Cmax Mean [5, 7]: 0.432 ng/mL; MRT last Mean [5, 7]: 0.250 h; Tmax Median [5, 7]: 0.250 h |
| 0.97 | 2.52 | 0.35 | – | – | – | CCCCCCCCCCCCCCCCOCC(COP(=O)(O)OC(CN(Cc1ccc(-c2ccccn2)cc1)NC(=O)C(NC(=O)OC)C(C)(C)C)C(Cc1ccccc1)NC(=O)C(NC(=O)OCCOCCOCCOC)C(C)(C)C)OC (stereo not drawn) [mPEG3-Atazanavir-monophospholipid] | 14.2 | 43.7 | – |
| – | – | – | 1.80 ± 0.060 | 4960 ± 1730 | 1420 ± 595 | CCOC(C)OC(CN(Cc1ccc(-c2ccccn2)cc1)NC(=O)C(NC(=O)OC)C(C)(C)C)C(Cc1ccccc1)NC(=O)C(NC(=O)OCCOCCOCCOCCOCCOC)C(C)(C)C (mixture of isomers) [1-ethoxyethoxy-mPEG5-Atazanivir, ethoxy ethoxy mPEG5-atazanavir] | – | – | AUCall Mean [5, 8]: 329 ng·h/mL; Cmax Mean [5, 8]: 109 ng/mL; MRT last Mean [5, 8]: 1.95 h; Tmax Median [5, 8]: 1.50 h; t½(z) [6]: 2.14 ± 1.85 h; Cmin(24 hr) ([6]; 24 hr): 0.208 ± 0.416 ng/mL |
| – | – | – | 0.597 ± 0.376 | 0.955 ± 1.02 | 0.833 ± 0.676 | COCCOCCOCCOC(=O)NC(C(=O)NC(Cc1ccccc1)C(CN(Cc1ccc(-c2ccccn2)cc1)NC(=O)C(NC(=O)OC)C(C)(C)C)OC(=O)CNC(=O)C(N)CC(C)C)C(C)(C)C.Cl (stereo not drawn) [Leu-Gly-mPEG3-Atazanavir, Leu-Gly-mPEG3-Atazanavir Hydrochloride] | – | – | AUCall Mean [5, 9]: 44.9 ng·h/mL; Cmax Mean [5, 9]: 2.10 ng/mL; MRT last Mean [5, 9]: 15.9 h; Tmax* Median [5, 9]: 4.00 h |

— patent US20120108501A1, “Protease Inhibitors” (priority 2009, published 2012)
